According to US20030087430A1 (priority 2001, published 2003):

Columns and labels:
Salmonella [1] = assay: Intracellular growth of Salmonella in RAW 264.7 macrophages (colony forming units); assay type: cell-based, S. typhimurium
Procedure: RAW 264.7 macrophages were plated in triplicate at a density of 5×10^5 cells/well, and incubated for 6 hours prior to infection with various treatments (DMEM-FBS, DMEM-LPDS, DMEM-D-FBS+30 uM Mevinolin, or DMEM-FBS+30 uM Mevinolin, or DMEM-FBS+30 uM Mevinolin+150 uM mevalonate). Cells were infected at a multiplicity of infection of 10 bacteria per cell for 15 minutes at 37° C. After infection, monolayers were incubated in media containing 100 ug/ml gentamicin to kill extracellular bacteria and then maintained in media containing 10 ug/ml for the remainder of the experiment. At 20 hours post infection, the cells were washed three times in PBS, lysed in 1% Triton X-100 and then plated to determine colony forming units.
RAW 264.7 macrophages were plated in triplicate at a density of 4×10^5 cells/well, and infected with bacteria at a multiplicity of infection of 10 bacteria per cell for 15 minutes at 37° C.
After infection, the 12 ug/ml of 4,4,10-β trimethyl-trans-decal-3β-ol (TMD) inhibitor was added to the media which also contained 100 ug/ml gentamicin. At 2 hours post infection, the gentamicin concentration was lowered to 10 ug/ml and maintained for the remainder of the experiment. At 20 hours post infection, cells were lysed with 1% Triton X-100 and bacteria were plated for colony forming units.
Macrophages were treated with 50 nM mevinolin for 3 days prior to infection. Cells were infected as described above, lysed with Triton X-100 at 2 and 20 hours post infection, and then plated to determine colony forming units.

[2] = test system: conversion of squalene oxide to lanosterol; assay: Cholesterol synthesis in TMD-treated macrophages; assay type: cell-based; conditions: 12 ug/ml TMD, RAW 264.7 macrophages
Salmonella [3] = assay: Extracellular growth of Salmonella in Luria broth (optical density); assay type: cell-based; conditions: LB containing 30 uM mevinolin, 37° C., optical density at 23 hours and growth curve
Procedure: Triplicate cultures of Salmonella were grown in a shaking incubator at 37° C. in plain LB, or LB containing 30 uM Mevinolin, and optical density was recorded at 23 hours after inoculation (results shown in FIG. 4A). Triplicate cultures of Salmonella were grown in a shaking incubator at 37° C. in plain LB or in LB containing 30 uM Mevinolin and optical density measurements were used to construct a growth curve (results shown in FIG. 4B).

RAW 264.7 macrophages = assay: Host cell viability (Alamar Blue reduction); assay type: cell-based; conditions: 10 nM to 100 uM mevinolin with or without mevalonate, 24 hours, Alamar Blue 3 hours
Procedure: RAW 264.7 macrophages were plated at a density of 1×10^5 cells/well and each sample represents the mean of six wells. Cells were treated with concentrations of mevinolin at 10 nM (1), 100 nM (2), 500 nM (3), 1 uM (4), 10 uM (5), 50 uM (6), 100 uM (7), 50 uM mevinolin+50 uM mevalonate (8), 50 uM mevinolin+150 uM mevalonate (9), 100 uM mevinolin+50 uM mevalonate (10), and 100 uM mevinolin+150 uM mevalonate (11), for 24 hours at 37° C. and then incubated with Alamar Blue for 3 hours.

Legionella = assay type: cell-based
[4] = test system: RAW264.7 macrophages infected with S. typhimurium (SL1344); assay: TUNEL staining of Salmonella-infected macrophages (apoptosis); assay type: cell-based; conditions: 30 μM mevinolin from 4 hours prior to infection, 13 hours post infection
Procedure: RAW264.7 macrophages were treated with 30 uM mevinolin starting at 4 hours prior to infection. Infections were done with S. typhimurium (SL1344) at a moi of 10 bacteria per cell. At 13 hours post infection, cells were fixed and processed for TUNEL staining. At least 100 infected and 100 uninfected cells were counted in each monolayer and scored for TUNEL staining. Uninfected cells (black) and infected cells (gray) are shown. Averages of duplicate samples are shown.

| SMILES | intracellular survival of Salmonella (Salmonella [1]; 12 ug/ml TMD added after infection, RAW 264.7 macrophages, CFU at 20 hours post infection) | cholesterol synthesis of treated cells [2] | intracellular growth of Salmonella at physiologically relevant concentration (Salmonella [1]; 50 nM mevinolin for 3 days prior to infection, CFU at 2 and 20 hours post infection) | reversal of the defect in Salmonella intracellular growth by mevalonate (Salmonella [1]; 30 uM mevinolin + 150 uM mevalonate, RAW 264.7 macrophages) | Salmonella's intracellular survival (Salmonella [1]; RAW 264.7 macrophages, 30 uM mevinolin from 6 hours prior to infection, CFU at 20 hours post infection) | bacterial growth in liquid culture (extracellular growth of Salmonella) (Salmonella [3]) | host cell viability (RAW 264.7 macrophages) | intracellular growth of Legionella in human macrophages (Legionella) | reversal of the defect in Legionella intracellular growth by mevalonate (Legionella) | apoptosis in Salmonella-infected macrophages (TUNEL staining) [4] |
| --- | --- | --- | --- | --- | --- | --- | --- | --- | --- | --- |
| CC1(C)[C@@H](O)CC[C@]2(C)CCCC[C@@H]12 (relative stereo) [TMD, 4,4,10-β trimethyl-trans-decal-3β-ol] | did not lead to a decrease in intracellular survival of Salmonella | accumulated intermediate precursors and made very little cholesterol | – | – | – | – | – | – | – | – |
| CC[C@H](C)C(=O)O[C@H]1C[C@@H](C)C=C2C=C[C@H](C)[C@H](CC[C@@H]3C[C@@H](O)CC(=O)O3)[C@H]21 [mevinolin] | – | – | inhibit the intracellular growth of Salmonella | can be reversed by the addition of mevalonate | decreased Salmonella's intracellular survival by a factor of ten | does not affect bacterial growth in liquid culture | host cell viability is not affected | inhibited intracellular growth of Legionella in human macrophages | could be reversed by the addition of mevalonate | induces apoptosis in Salmonella-infected macrophages |
